Data on six compounds can be found in patent US20050282225A1, “Quantitative binding assays using green fluorescent protein as a label” (priority 1998, published 2005).

Where no end group is shown, it is not given here.

One assay concerns anti-octapeptide M2 monoclonal antibody. The experiment in a line: heterogeneous competitive immunoassay with immobilized M2 antibody and octapeptide-GFP conjugate, selectivity study. The assay is classed as binding. The settings on record: sequential incubation 25 min + 25 min, supernatant fluorescence (FIG. 10). As to the method: A dose-response curve was constructed by incubating 200 μL of a solution of different concentrations of the octapeptide with 200 μL of a 140 μg/mL suspension of the immobilized antibody and 90 μL of 1.1×10^−8 M of octapeptide-GFP conjugate and 1.510 mL of PBS buffer.
The incubations were performed in a sequential manner. Initially, the octapeptide was incubated with the beads for 25 min. Then, the tubes were centrifuged at 2000×g for 15 min, the supernatant was removed, and the beads were washed three times with PBS. PBS (1.710 mL) and the octapeptide-GFP conjugate were added, and the mixture was incubated for an additional 25 min at room temperature. The beads were then centrifuged again as described, and 1.7 mL of the supernatant was transferred to plastic cuvettes for measurement of fluorescence emission at 508 nm. The selectivity of the assay was evaluated by constructing a dose-response curve for rev-octapeptide, an octapeptide with the amino acids of the octapeptide in the reverse order.
“KDDDDKYD [rev-octapeptide, octapeptide with the amino acids of the octapeptide in the reverse order]”: the “response in dose-response curve (displacement of octapeptide-GFP from M2 antibody)” value is “essentially no response”.

In the next assay the target is Avidin (Gallus gallus, UniProt P02701).
Avidin, sequence (P02701 25-152): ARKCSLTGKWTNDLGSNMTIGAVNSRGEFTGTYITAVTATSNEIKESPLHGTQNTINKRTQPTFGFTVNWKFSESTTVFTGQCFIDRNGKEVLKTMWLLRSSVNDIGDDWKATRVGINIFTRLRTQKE
Experiment: not given
To be noted: association (affinity) constant of the binding pair substance: Avidin; cited from earlier work.
For the compound `COC(=O)CCCCC1SCC2NC(=O)N(C(=O)OC)C21` (stereo not drawn) [3′-N-methoxy-carbonylbiotin methyl ester], the Ka is given as 10^9 M^−1.
Consider `O=C(O)CCCCC1SCC2NC(=S)NC21` (stereo not drawn) [2-thiobiotin], for which the Ka is reported as 10^13 M^−1.
For the compound `O=C(O)CCCC[C@@H]1SC[C@@H]2NC(=O)N[C@@H]21` [Biotin], the Ka was 10^15 M^−1.
On to `N=C1N[C@H]2[C@H](CS[C@H]2CCCCC(=O)O)N1` [Iminobiotin], for which the Ka was 10^11 M^−1.
With `C[C@@H]1NC(=O)N[C@@H]1CCCCCC(=O)O` [Dethiobiotin], the Ka is 10^13 M^−1.
